{"source": "patent US6476037B1", "about": "“L-arginine and phosphodiesterase (PDE) inhibitor synergism” (The Regents of the University of California, priority 2000, dated 2002)", "key": {"[1]": {"tested_on": "Systemic and Coronary Vasculature of the Pig", "assay": "Hemodynamic effects in chronically instrumented, anesthetized swine", "type": "in vivo", "experimental": "Chronically instrumented female swine (70 kg, n=10) (ascending aortic and left anterior descending (LAD) coronary artery transit time flow probes, carotid and internal jugular pressures) were administered five doses of 1-arginine in five-minute intervals. After a period of recovery, four doses of nitroglycerin (1, 2, 3, 4 μg/kg/min) were infused. Sildenafil (100 mg IV) was administered and the 1-arginine and nitroglycerin administrations repeated.\nAfter approval by the Institutional Animal Care and Use Committee, 70 kg female domestic swine (70.5±2.6 kg) were sedated with ketamine (25 mg/kg IM). Mask induction with isoflurane was followed by intubation with an endotracheal tube (6.0 ID 45 cm long). An angiocathether (20 gauge) was placed in an ear vein for IV fluid administration. Prophylactic antibiotics (cefazolin 1 gram IV prior to incision followed by cephalexin 500 mg PO BID) were given. The animal was ventilated with 100% oxygen and isoflurane to maintain anesthesia. A left thoracotomy (T4-5) was performed under sterile conditions. Transonics® (Ithaca, N.Y.) transit time flow probes were placed on the ascending aorta (model 28A) and the proximal left anterior descending coronary artery (3 mm, model 3S). The flow probe cables were tunneled to the animal's back. The thoracotomy was closed and air evacuated with a chest tube. The animals were given ketorolac (30 mg IV) followed by buprenorphine (0.3 to 0.6 mg IM Q8 hours for 5 days) for postoperative pain. The animals were allowed to recover for a minimum of two days before experimentation.\nPreviously instrumented swine were sedated with ketamine (25 mg/kg IM) and mask-induced with isoflurane. An angiocatheter (20 gauge) was placed in an ear vein for IV fluid administration. Animals were intubated (6.0 ID 45 cm long tube) and ventilated with 100% oxygen and isoflurane. Prophylactic antibiotics were given (cefazolin 1 gm IV). The animal's neck was then opened using sterile technique. Angiocatheters (16 gauge) were placed in the left and right internal jugular veins for central venous pressure monitoring and for drug and fluid infusions. An angiocatheter (20 gauge) was placed in the common carotid artery for blood sampling and pressure measurement. Arterial and central venous pressures were measured with disposable pressure transducers (Abbott Critical Care Systems Transpac® IV, North Chicago, Ill.) and the Transonics® Transit Time Flow meter (Model 206 with (-R) pRessure Option, Ithaca, N.Y.). ECG was monitored (Electronics for Medicine Monitor Model OM). The neck was closed. A supra-pubic bladder catheter was placed using sterile technique for urinary drainage. Data was recorded at 100 Hz using WinDaq data acquisition software (Transonics Systems, Ithaca, N.Y.). The pressure transducers were calibrated using a mercury manometer. Flow probes were calibrated prior to use.\nFentanyl (2 mg), diazepam (20 mg), and pancuronium (10 mg) were administered as a bolus. Isoflurane was simultaneously discontinued."}, "[2]": {"conditions": "cited from earlier work"}, "[3]": {"assay": "L-arginine pharmacokinetic parameters from preliminary clinical and animal data", "type": "in vivo", "experimental": "Computer simulation of the predicted L-arginine levels from the high dose (1 mcg/kg/min) yield levels of 420 mmol/L. (T1/2=10 minutes, Volume distribution=0.36 L/kg: obtained from our preliminary clinical and animal data). Computer simulations of the low dose (0.5 mcg/kg/min) yield levels of 260 mmol/L. These doses are in the range to improve endothelial function and prevent vasospasm but will not cause significant vasodilation."}, "[4]": {"assay": "Serum L-arginine and L-citrulline concentrations after IV L-arginine boluses", "type": "in vivo, swine", "experimental": "2. L-Arginine Administration: A bolus dose of 1-arginine (60 cc of 10% 1-arginine (6 grams)) was administered intravenously. Five minutes later a blood sample was taken. The dose was then repeated. This procedure was repeated a total of five times (total of 300 cc of 10% 1-arginine (30 grams) administered). Thirty minutes were allowed to elapse and then a final blood sample collected.\nBlood samples were collected in serum separator tubes and immediately placed on ice. Tubes were centrifuged for 20 minutes and the serum removed and stored in cryovials at −80° C. L-arginine and 1-citrulline levels were quantified by the Protein Structure Lab at the University of California, Davis (Davis, Calif.) with an ion-exchange chromatographer (Beckman 6300 aminoacid analyzer, Fullerton, Calif.). Serum osmolality was measured using an osmometer (Advanced Instruments, Needleham Heights, Mass.) by the Veternary Medical Teaching Hospital Diagnostic Laboratories (Davis, Calif.)."}, "[5]": {"assay": "L-arginine levels after oral or intravenous L-arginine supplementation", "type": "in vivo", "conditions": "preliminary trial, bolus 30 grams over 15 minutes; from 81±8", "experimental": "With respect to the coronary disease applications, we note that L-arginine levels without supplementation are about 116±14 mmol/L and oral administration elevates the levels to about 224±26 mmol/L with improvement in vasomotor function. […] Intravenous infusions (10 mg/kg/min) raised L-arginine levels from about 102±5 to about 8172±122 mmol/L and caused vasodilation. In our preliminary trial a bolus of L-arginine (30 grams over 15 minutes) elevated levels (81±8 to 6900±600 μmol). In preferred embodiments, there were two fundamentally different ranges of L-Arginine levels achieved. Levels that were 1.5 to 2 times baseline and levels that were 50 to 100 times baseline."}, "[6]": {"conditions": "first administration of sildenafil, 100 mg IV bolus, mean±SE"}, "[7]": {"conditions": "first dose of sildenafil, 100 mg IV bolus"}, "[8]": {"conditions": "l-arginine alone, five 6 gram IV boluses at 5 min intervals, mean±SE"}}, "note": "Read-outs that look alike come from different tables or passages of the source."}
{"compound": "CCCc1nn(C)c2c(=O)[nH]c(-c3cc(S(=O)(=O)N4CCN(C)CC4)ccc3OCC)nc12", "note": "[sildenafil]", "values": [{"measurement": "LAD flow, peak", "setting": "[1]; [6]", "result": "87.6 ± 7.3", "unit": "mL/min"}, {"measurement": "Mean arterial pressure, min.", "setting": "[1]; [6]", "result": "78.7±7.0", "unit": "mmHg"}, {"measurement": "cardiac output, peak", "setting": "[1]; [6]", "result": "10.5 ± 0.8", "unit": "L/min"}, {"measurement": "central venous pressure, min.", "setting": "[1]; [6]", "result": "9.1±1.1", "unit": "mmHg"}, {"measurement": "coronary vascular resistance, min.", "setting": "[1]; [6]", "result": "54.7±5.3", "unit": "dynes*sec*cm^−5*10^3"}, {"measurement": "heart rate, peak", "setting": "[1]; [6]", "result": "165.0±8.9", "unit": "beats/min"}, {"measurement": "systemic vascular resistance, min.", "setting": "[1]; [6]", "result": "612.2±61.1", "unit": "dynes*sec*cm^−5"}, {"measurement": "duration of effects on MAP, CVP, CVR, and SVR", "setting": "[1]; [7]", "result": "persisted through the fifteen-minute observation period"}, {"measurement": "duration of increase in cardiac output (disappeared after)", "setting": "[1]; [7]", "result": "three"}, {"measurement": "duration of increase in heart rate", "setting": "[1]; [7]", "result": "about five"}, {"measurement": "increase in cardiac output", "setting": "[1]; [7]", "result": 1.2, "unit": "L/min"}, {"measurement": "effect of sildenafil on the l-arginine-induced change in LAD flow", "setting": "[1]; sildenafil 100 mg IV before l-arginine boluses, P<0.05", "result": "potentiated the effects of 1-arginine on LAD flow"}, {"measurement": "time of peak hemodynamic effect following injection", "setting": "[1]; sildenafil i.v. bolus", "result": "approximately two"}]}
{"compound": "O=[N+]([O-])OCC(CO[N+](=O)[O-])O[N+](=O)[O-]", "note": "[Nitroglycerin, nitroglycerin]", "values": [{"measurement": "CO, Max Effect", "setting": "[1]; in vivo, iv", "result": "9.1 ± 0.7", "unit": "L/min"}, {"measurement": "CVP, Max Effect", "setting": "[1]; in vivo, iv", "result": "9.9 ± 1.0", "unit": "mmHg"}, {"measurement": "CVR, Max Effect", "setting": "[1]; in vivo, iv", "result": "98.9 ± 9.8", "unit": "dynes*sec*cm^−5*10^3"}, {"measurement": "HR, Max Effect", "setting": "[1]; in vivo, iv", "result": "128.3 ± 9.0", "unit": "beats/min"}, {"measurement": "LAD Flow, Max Effect", "setting": "[1]; in vivo, iv", "result": "65.4 ± 6.7", "unit": "mL/min"}, {"measurement": "MAP, Max Effect", "setting": "[1]; in vivo, iv", "result": "103.9 ± 6.6", "unit": "mmHg"}, {"measurement": "SVR, Max Effect", "setting": "[1]; in vivo, iv", "result": "882.8 ± 98.6", "unit": "dynes*sec*cm^−5"}]}
{"compound": "Cl.N=C(N)NCCC[C@H](N)C(=O)O", "note": "[L-Arginine, 1-arginine hydrochloride]", "values": [{"measurement": "L-arginine levels", "setting": "[2]; intravenous infusions 10 mg/kg/min, from about 102±5", "result": "about 8172±122 mmol/L"}, {"measurement": "L-arginine levels", "setting": "[2]; oral administration, without supplementation about 116±14", "result": "about 224±26 mmol/L"}, {"measurement": "CO, Max Effect", "setting": "[1]; [8]", "result": "8.9 ± 0.5", "unit": "L/min"}, {"measurement": "CVP, Max Effect", "setting": "[1]; [8]", "result": "12.0 ± 1.0", "unit": "mmHg"}, {"measurement": "CVR, Max Effect", "setting": "[1]; [8]", "result": "89.1 ± 4.7", "unit": "dynes*sec*cm^−5*10^3"}, {"measurement": "HR, Max Effect", "setting": "[1]; [8]", "result": "106.5 ± 6.7", "unit": "beats/min"}, {"measurement": "MAP, Max Effect", "setting": "[1]; [8]", "result": "107.4 ± 6.4", "unit": "mmHg"}, {"measurement": "SVR, Max Effect", "setting": "[1]; [8]", "result": "825.0 ± 39.3", "unit": "dynes*sec*cm^−5"}, {"measurement": "LAD Flow, Max Effect", "setting": "[1]; l-arginine alone, five 6 gram IV boluses at 5 min intervals, mean±SE, hydrochloride", "result": "66.7 ± 6.6", "unit": "mL/min"}, {"measurement": "LAD Flow, Max Effect", "setting": "[1]; l-arginine alone, five 6 gram IV boluses at 5 min intervals, mean±SE, listed as L-arginine, hydrochloride", "result": "66.7 ± 6.6", "unit": "mL/min"}, {"measurement": "change in coronary blood flow relative to the change expected for a similar change in osmolality", "setting": "[1]; l-arginine fifth dose compared with mannitol", "result": 2.6, "unit": "times"}, {"measurement": "T1/2", "setting": "[3]", "result": 10, "unit": "min"}, {"measurement": "Volume distribution", "setting": "[3]", "result": 0.36, "unit": "L/kg"}, {"measurement": "Serum [L-Arginine]", "setting": "[4]; 5 min after Dose #1 (6 grams IV), no sildenafil", "result": "1987.0 ± 116.8", "unit": "µM"}, {"measurement": "Serum [L-Arginine]", "setting": "[4]; 5 min after Dose #2 (6 grams IV each), no sildenafil", "result": "3139.2 ± 129.6", "unit": "µM"}, {"measurement": "Serum [L-Arginine]", "setting": "[4]; 5 min after Dose #3 (6 grams IV each), no sildenafil", "result": "4143.3 ± 205.4", "unit": "µM"}, {"measurement": "Serum [L-Arginine]", "setting": "[4]; 5 min after Dose #4 (6 grams IV each), no sildenafil", "result": "5232.7 ± 364.6", "unit": "µM"}, {"measurement": "Serum [L-Arginine]", "setting": "[4]; 5 min after Dose #5 (total 30 grams IV), no sildenafil", "result": "5922.1 ± 307.4", "unit": "µM"}, {"measurement": "Serum [L-Citrulline]", "setting": "[4]; 5 min after L-arginine Dose #1 (6 grams IV), no sildenafil", "result": "54.7 ± 5.2", "unit": "µM"}, {"measurement": "Serum [L-Citrulline]", "setting": "[4]; 5 min after L-arginine Dose #2, no sildenafil", "result": "53.2 ± 4.2", "unit": "µM"}, {"measurement": "Serum [L-Citrulline]", "setting": "[4]; 5 min after L-arginine Dose #3, no sildenafil", "result": "54.9 ± 4.4", "unit": "µM"}, {"measurement": "Serum [L-Citrulline]", "setting": "[4]; 5 min after L-arginine Dose #4, no sildenafil, hydrochloride", "result": "61.5 ± 6.7", "unit": "µM"}, {"measurement": "Serum [L-Citrulline]", "setting": "[4]; 5 min after L-arginine Dose #4, no sildenafil, listed as 1-arginine, hydrochloride", "result": "61.5 ± 6.7", "unit": "µM"}, {"measurement": "Serum [L-Citrulline]", "setting": "[4]; 5 min after L-arginine Dose #5, no sildenafil", "result": "60.2 ± 5.9", "unit": "µM"}, {"measurement": "Serum [L-Citrulline]", "setting": "[4]; 30 min Post last L-arginine dose, no sildenafil", "result": "60.5 ± 7.1", "unit": "µM"}, {"measurement": "Serum [L-Arginine]", "setting": "[4]; 30 min Post last dose, no sildenafil", "result": "2592.7 ± 268.9", "unit": "µM"}, {"measurement": "L-arginine levels", "setting": "[5]", "result": "6900 ± 600", "unit": "µmol"}]}
